Test [1] concerns the target T1, human EHMT2 913-1193 (Homo sapiens, UniProt Q96KQ7).
T1 construct: recombinant purified human EHMT2 913-1193, Viva; purchased Viva
T1 sequence (Q96KQ7 913-1193): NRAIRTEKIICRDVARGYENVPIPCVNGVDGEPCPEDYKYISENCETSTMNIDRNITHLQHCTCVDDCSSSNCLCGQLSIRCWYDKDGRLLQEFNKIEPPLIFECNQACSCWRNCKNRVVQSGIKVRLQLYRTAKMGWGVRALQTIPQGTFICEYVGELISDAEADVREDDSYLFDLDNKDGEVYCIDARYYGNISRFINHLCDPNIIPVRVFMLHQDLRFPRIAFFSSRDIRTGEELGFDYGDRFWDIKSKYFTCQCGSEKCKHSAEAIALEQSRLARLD
The experiment in a line: EHMT2 enzyme assay on histone peptide substrate (EHMT2 PEP). The format is biochemical. The note with it: Table II; read-out: EHMT2 PEP (IC50 μM). A digest of the protocol: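 Radiometric methyltransferase assay: 0.031 nM EHMT2 913-1193 preincubated 30 min with compound (10-point 3-fold series, top final 50 μM, 2% DMSO) in 20 mM Bicine pH 7.5, 1 mM TCEP. Biotinylated histone peptide methylated with ^3H-SAM for 60 min at room temperature, quenched with unlabeled SAM, captured on streptavidin Flashplates and counted.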

Test [2] deals with T2, EHMT1 (Homo sapiens, UniProt Q9H9B1).
T2 sequence (Q9H9B1 1-1298): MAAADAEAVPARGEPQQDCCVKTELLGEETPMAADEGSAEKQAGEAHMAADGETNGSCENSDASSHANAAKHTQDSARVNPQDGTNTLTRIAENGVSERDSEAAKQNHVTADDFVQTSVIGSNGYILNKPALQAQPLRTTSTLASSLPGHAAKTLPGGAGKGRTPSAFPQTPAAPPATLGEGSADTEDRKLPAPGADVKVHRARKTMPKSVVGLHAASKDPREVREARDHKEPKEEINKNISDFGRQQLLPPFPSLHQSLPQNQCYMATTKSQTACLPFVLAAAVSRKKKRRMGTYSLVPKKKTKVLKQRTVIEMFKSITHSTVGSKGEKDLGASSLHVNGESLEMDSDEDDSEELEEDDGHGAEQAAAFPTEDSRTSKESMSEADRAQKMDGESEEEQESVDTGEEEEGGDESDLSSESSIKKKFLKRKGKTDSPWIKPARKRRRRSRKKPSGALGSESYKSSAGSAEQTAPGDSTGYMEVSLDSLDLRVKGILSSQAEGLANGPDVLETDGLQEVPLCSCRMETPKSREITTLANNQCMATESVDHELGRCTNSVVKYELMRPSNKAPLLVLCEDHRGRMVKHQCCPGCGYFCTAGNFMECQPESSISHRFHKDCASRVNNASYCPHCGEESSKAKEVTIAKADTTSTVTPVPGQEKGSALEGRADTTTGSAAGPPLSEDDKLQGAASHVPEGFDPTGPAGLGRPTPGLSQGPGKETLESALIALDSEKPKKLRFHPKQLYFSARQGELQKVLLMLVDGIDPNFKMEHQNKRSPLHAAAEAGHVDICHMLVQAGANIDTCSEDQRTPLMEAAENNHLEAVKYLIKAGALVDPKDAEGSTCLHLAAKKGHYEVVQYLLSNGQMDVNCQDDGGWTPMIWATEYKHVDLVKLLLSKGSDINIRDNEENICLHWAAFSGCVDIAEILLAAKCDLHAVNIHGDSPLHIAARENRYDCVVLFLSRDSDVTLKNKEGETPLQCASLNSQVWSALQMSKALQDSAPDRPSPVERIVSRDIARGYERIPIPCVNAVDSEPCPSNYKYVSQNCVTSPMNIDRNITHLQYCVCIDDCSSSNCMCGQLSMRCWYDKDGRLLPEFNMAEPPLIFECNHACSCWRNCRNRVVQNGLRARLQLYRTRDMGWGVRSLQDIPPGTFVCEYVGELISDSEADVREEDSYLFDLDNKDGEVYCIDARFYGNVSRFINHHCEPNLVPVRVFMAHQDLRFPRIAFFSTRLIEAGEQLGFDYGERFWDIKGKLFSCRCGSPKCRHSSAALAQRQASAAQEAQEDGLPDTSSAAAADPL
Description: EHMT1 enzyme assay on peptide substrate (EHMT1 PEP). The format is biochemical. As to conditions: Table II; read-out: EHMT1 PEP (IC50 μM).

Bounds are passed on as bounds.

As usually defined, the IC50 is the point on the concentration scale where inhibition reaches its midpoint. As to `CNc1ccnc(Nc2cccc(OCCCN3CCCC3)c2)n1` [Compound 207, N^4-methyl-N^2-(3-(3-(pyrrolidin-1-yl)propoxy)phenyl)pyrimidine-2,4-diamine], the IC50 in test [1] and in test [2] was 1 to 10 µM throughout.
As for `CNc1nc(C)cc(Nc2ccc(OC)c(OCCCN3CCCC3)c2)n1` [Compound 208], the IC50 in test [1] and in test [2] was 0.1 to 1 µM each time.
For `CNc1ccnc(Nc2ccc(OC)c(OCCCN3CCCC3)c2)c1` [Compound 209, N^2-(4-methoxy-3-(3-(pyrrolidin-1-yl)propoxy)phenyl)-N^4-methylpyridine-2,4-diamine], the IC50 in test [1] and in test [2] was 0.1 to 1 µM throughout.
Consider `CNc1ccnc(Nc2ccc(OC)c(OCCCN3CCOCC3)c2)n1` [Compound 210], for which the IC50 in test [1] and in test [2] was 1 to 10 µM each time.
Consider `COc1ccc(Nc2nccc(-n3nc(C)cc3C)n2)cc1OCCCN1CCCC1` [Compound 214], for which the IC50 in test [1] and in test [2] was above 10 µM throughout.
Take `CNCc1cnc(Nc2ccc(OC)c(OCCCN3CCCC3)c2)nc1` [Compound 215]: the IC50 in test [1] and in test [2] was above 10 µM each time.
On to `COc1ccc(Nc2ccnc(NCC3CCN(C(C)=O)CC3)n2)cc1OCCCN1CCCC1` [Compound 216], for which the IC50 in test [1] and in test [2] was 0.1 to 1 µM each time.
With `COc1ccc(Nc2ccc3cnn(C)c3c2)cc1OCCCN1CCCC1` [Compound 217], the IC50 in test [1] and in test [2] was above 10 µM throughout.
Turning to `COc1ccc(Nc2ccc3ncn(C)c3n2)cc1OCCCN1CCCC1` [Compound 218], the IC50 in test [1] and in test [2] was above 10 µM each time.
On to `COc1ccc(Nc2ncc3ncn(C)c3n2)cc1OCCCN1CCCC1` [Compound 219], for which the IC50 in test [1] and in test [2] was above 10 µM each time.
In the case of `COc1ccc(Nc2cccc3ncnn23)cc1OCCCN1CCCC1` [Compound 220], the IC50 in test [1] and in test [2] was above 10 µM each time.
For the compound `COc1ccc(Nc2ccc3nn(C)cc3c2)cc1OCCCN1CCCC1` [Compound 221], the IC50 in test [1] and in test [2] was above 10 µM each time.
For the compound `COc1ccc(Nc2cccc3cn(C)nc23)cc1OCCCN1CCCC1` [Compound 222], the IC50 in test [1] and in test [2] was above 10 µM in each case.
On to `COc1ccc(Nc2ccc3ncc(C)n3n2)cc1OCCCN1CCCC1` [Compound 223], for which the IC50 in test [1] and in test [2] was 1 to 10 µM in each case.
In the case of `COc1ccc(Nc2nccc(-c3cnn(C)c3)n2)cc1OCCCN1CCCC1` [Compound 224], the IC50 in test [1] and in test [2] was above 10 µM in each case.
As for `COc1ccc(Nc2nccc(Nc3cccc(F)c3)n2)cc1OCCCN1CCCC1` [Compound 225], the IC50 in test [1] and in test [2] was 1 to 10 µM each time.
Take `COc1ccc(Nc2nccc(NCC3CCOCC3)n2)cc1NCCCN1CCCC1` [Compound 226]: the IC50 was in the range of 0.1 to 1 µM in test [1] and 1 to 10 µM in test [2].
The matching figures for `COc1ccc(OCCCN2CCCC2)cc1Nc1nccc(NCC2CCOCC2)n1` [Compound 227]: above 10 µM and above 10 µM.
The matching figures for `COc1ccc(NCCCN2CCCC2)cc1Nc1nccc(NCC2CCOCC2)n1` [Compound 228]: above 10 µM and above 10 µM.
As for `CNc1ccnc(Nc2ccc(OC)c(OCCCN3CC[C@@H](F)C3)c2)n1` [Compound 229], the IC50 in test [1] and in test [2] was 0.1 to 1 µM throughout.
With `CNc1ccnc(Nc2ccc(OC)c(OCCCN3CC(F)C3)c2)n1` [Compound 230], the IC50 in test [1] and in test [2] was 1 to 10 µM in each case.
For `CNc1nccc(Nc2ccc(OC)c(OCCCN3CCCC3)c2)n1` [Compound 231], the IC50 in test [1] and in test [2] was 0.1 to 1 µM throughout.
As to `CNc1cc(C)nc(Nc2ccc(F)c(OCCCN3CCCC3)c2)n1` [Compound 232], the IC50 in test [1] and in test [2] was above 10 µM in each case.
As to `CNc1nc(Nc2ccc(OC)c(OCCCN3CCCC3)c2)ncc1C#N` [Compound 233], the IC50 in test [1] and in test [2] was above 10 µM each time.
Consider `CNc1nc(Nc2ccc(OC)c(OCCCN3CCCC3)c2)ncc1C(F)(F)F` [Compound 234], for which the IC50 in test [1] and in test [2] was above 10 µM each time.
Turning to `CNc1ncc(C(F)(F)F)c(Nc2ccc(OC)c(OCCCN3CCCC3)c2)n1` [Compound 235], the IC50 in test [1] and in test [2] was above 10 µM each time.
For `CNc1nc(Nc2ccc(OC)c(OCCCN3CCCC3)c2)nc(C)c1F` [Compound 236], the IC50 in test [1] and in test [2] was 0.1 to 1 µM throughout.
For the compound `CNc1ccnc(Nc2ccc(OC)c(OCCN3CCOCC3)c2)n1` [Compound 237], the IC50 in test [1] and in test [2] was 1 to 10 µM in each case.
Regarding `CNc1ccnc(Nc2ccc3c(c2)N(C(=O)CCN(C)C)CC3)n1` [Compound 239], the IC50 in test [1] and in test [2] was above 10 µM throughout.
Take `CCc1cc(NC)nc(Nc2ccc(OC)c(OCCCN3CCCC3)c2)n1` [Compound 240]: the concentration for half-maximal inhibition (IC50) in test [1] and in test [2] was below 0.1 µM each time.
For `COc1ccc(Nc2nccc(CNC3CCOCC3)n2)cc1OCCCNc1ccccc1` [Compound 241], the IC50 in test [1] and in test [2] was above 10 µM in each case.
For the compound `COc1ccc(Nc2cnnc(NCC3CCN(C(C)=O)CC3)c2)cc1OCCCN1CCCC1` [Compound 242], the IC50 in test [1] and in test [2] was 1 to 10 µM each time.
Take `COc1ccc(Nc2nccc(NCC3CCOCC3)n2)cc1OC1CC2(C1)CN(C)C2` [Compound 243]: the IC50 in test [1] and in test [2] was above 10 µM in each case.
Turning to `CNc1ccnc(Nc2ccc(F)c(OCCCN3CCCC3)c2)n1` [Compound 244], the IC50 in test [1] and in test [2] was above 10 µM each time.
With `COc1ccc(Nc2nccc(N)n2)cc1OCCCN1CCCC1` [Compound 245], the IC50 in test [1] and in test [2] was 0.1 to 1 µM in each case.
`CNc1cnnc(Nc2ccc(OC)c(OCCCN3CCCC3)c2)c1` [Compound 246]: the IC50 in test [1] and in test [2] was 0.1 to 1 µM each time.
As for `CNc1cncc(Nc2ccc(OC)c(OCCCN3CCCC3)c2)n1` [Compound 247], the IC50 in test [1] and in test [2] was 1 to 10 µM throughout.
Take `CNc1cc(Nc2cc(OCCCN3CCCC3)c(OC)cn2)ccn1` [Compound 248]: the IC50 in test [1] and in test [2] was below 0.1 µM in each case.
Regarding `COc1ccc(Nc2nccc3[nH]ncc23)cc1OCCCN1CCCC1` [Compound 249], the IC50 in test [1] and in test [2] was above 10 µM throughout.
Consider `COc1ccc(Nc2ccnc3[nH]ccc23)cc1OCCCN1CCCC1` [Compound 250], for which the IC50 in test [1] and in test [2] was 1 to 10 µM throughout.
In the case of `CC(C)Nc1ccnc(Nc2cccc(OCCCN3CC[C@@H](F)C3)c2)n1` [Compound 251], the IC50 in test [1] and in test [2] was above 10 µM throughout.
Take `CNc1ccnc(Nc2cccc(OC[C@H](O)CN3CCCC3)c2)n1` [Compound 252]: the IC50 in test [1] and in test [2] was 1 to 10 µM in each case.
For `CNc1ccnc(Nc2cccc(OC[C@@H](O)CN3CCCC3)c2)n1` [Compound 253], the IC50 in test [1] and in test [2] was above 10 µM throughout.

(Values after patent publication US20210198277A1, “AMINE-SUBSTITUTED ARYL OR HETEROARYL COMPOUNDS” (Epizyme, Inc., priority 2016, published 2021).)
